# The source made the active and inactive calls. The rule behind the calls is not given here.
# Test system: Clostridioides difficile clinical isolate growth, OD600, 24 h
# Assay: C. difficile growth inhibition, confirmation, 4-point retest (AID 1224921)
row,Structure (SMILES),AC50
1,C[C@@H]1CN([C@@H](C)CO)C(=O)c2cc(NS(=O)(=O)c3cn(C)cn3)ccc2O[C@@H](C)CCCCO[C@@H]1CN(C)C(=O)Nc1ccc(C(F)(F)F)cc1,5.78 µM
2,C[C@H](CO)N1C[C@H](C)[C@H](CN(C)CC2CCCCC2)OCCCC[C@H](C)Oc2ccc(NC(=O)Nc3ccc(C(F)(F)F)cc3)cc2C1=O,10.9 µM
3,O=C(NCC[C@@H]1CC[C@H](NC(=O)c2cccnc2)[C@H](CO)O1)Nc1ccc(C(F)(F)F)cc1,3.01 µM
4,C[C@@H]1CCCCO[C@@H](CN(C)C)[C@H](C)CN([C@H](C)CO)C(=O)c2cc(NC(=O)Nc3ccc(C(F)(F)F)cc3)ccc2O1,17.5 µM
5,O=C(NCC[C@H]1CC[C@H](NC(=O)c2cccnc2)[C@H](CO)O1)Nc1ccc(C(F)(F)F)cc1,1.6 µM
6,O=C(C[C@H]1CC[C@H]2[C@@H](COC[C@H](O)CN2C(=O)Nc2ccc(Cl)c(Cl)c2)O1)NCc1ccccc1,1.11 µM
7,CO[C@@H]1CN(C)C(=O)c2ccc(NC(=O)C3CCC3)cc2OC[C@@H](C)N(C(=O)Nc2ccc(C(F)(F)F)cc2)C[C@H]1C,11.6 µM
8,O=C(C[C@H]1CC[C@H]2[C@@H](COC[C@@H](O)CN2C(=O)Nc2ccc(Cl)c(Cl)c2)O1)NCc1ccccc1,3.72 µM
9,CNC(=O)C[C@@H]1CC[C@@H]2[C@H](COC[C@@H](O)CN2C(=O)Nc2ccc(Cl)c(Cl)c2)O1,2.31 µM
10,C[C@@H]1CN([C@@H](C)CO)C(=O)c2cccc(NC(=O)Nc3ccc(C(F)(F)F)cc3)c2O[C@@H]1CN(C)Cc1ccc(Oc2ccccc2)cc1,< 0.5 µM
11,CN(C)CC(=O)N[C@H]1CC[C@H](CCNC(=O)Nc2ccc(C(F)(F)F)cc2)O[C@H]1CO,10.9 µM
12,C[C@@H]1CCCCO[C@H](CN(C)CC2CCCCC2)[C@H](C)CN([C@@H](C)CO)C(=O)c2cc(NC(=O)Nc3ccc(C(F)(F)F)cc3)ccc2O1,10.4 µM
13,CCNC(=O)C[C@@H]1CC[C@H]2[C@@H](COC[C@@H](O)CN2C(=O)Nc2ccc(Cl)c(Cl)c2)O1,2.6 µM
14,O=C(Nc1ccc(-c2ccccc2)cc1)[C@@H]1[C@@H](CO)[C@@H]2Cn3c(cccc3=O)[C@@H]2N1CC1CCCCC1,> 60 µM (inactive)
15,C[C@H](NC(=O)C[C@H]1CC[C@@H]2[C@H](COC[C@H](O)CN2C(=O)Nc2cc(Cl)cc(Cl)c2)O1)c1ccccc1,11.5 µM
16,CO[C@H](CN(C)C(=O)C1CC1)[C@@H](C)CN(C(=O)Nc1ccc(C(F)(F)F)cc1)[C@@H](C)CO,6.86 µM
17,O=C(C[C@@H]1CC[C@@H]2[C@H](COC[C@@H](O)CN2C(=O)Nc2cc(Cl)cc(Cl)c2)O1)N1CCOCC1,14.2 µM
18,O=C(C[C@H]1CC[C@@H]2[C@H](COC[C@@H](O)CN2C(=O)Nc2ccc(Cl)c(Cl)c2)O1)NCc1ccncc1,4.06 µM
19,CNC(=O)C[C@@H]1CC[C@@H]2[C@H](COC[C@H](O)CN2C(=O)Nc2ccc(Cl)c(Cl)c2)O1,3.06 µM
20,C[C@H](CO)N1C[C@H](C)[C@@H](CN(C)C(=O)Nc2ccc(C(F)(F)F)cc2)Oc2ccc(NC(=O)C3CC3)cc2C1=O,15.5 µM
21,CO[C@H]1CN(C)C(=O)c2ccc(NC(=O)Nc3cc(Cl)cc(Cl)c3)cc2OC[C@H](C)NC[C@H]1C,14 µM
22,C[C@@H]1CN([C@@H](C)CO)C(=O)c2cc(NS(=O)(=O)c3ccc(Cl)cc3)ccc2O[C@@H](C)CCCCO[C@H]1CN(C)CC1CCCCC1,13.1 µM
23,O=C(C[C@H]1CC[C@H]2[C@@H](COC[C@@H](O)CN2C(=O)c2cnccn2)O1)NCc1ccc(Cl)cc1,> 60 µM (inactive)
24,O=C(C[C@@H]1CC[C@H]2[C@@H](COC[C@@H](O)CN2C(=O)Nc2ccc(C(F)(F)F)cc2)O1)NCCc1ccncc1,4.89 µM

row,Structure (SMILES),AC50
1,C[C@H](CO)N1C[C@H](C)[C@H](CN(C)C(=O)Nc2ccccc2)Oc2c(NC(=O)Nc3ccc(C(F)(F)F)cc3)cccc2C1=O,26.5 µM
2,CN(C)CC(=O)N[C@@H]1CC[C@@H](CCNC(=O)Nc2ccc(C(F)(F)F)cc2)O[C@H]1CO,4.63 µM
3,COc1ccc(S(=O)(=O)Nc2ccc3c(c2)C(=O)N([C@@H](C)CO)C[C@H](C)[C@@H](CN(C)Cc2ccc4c(c2)OCO4)OCCCC[C@@H](C)O3)cc1,6.68 µM
4,CO[C@H](CN(C)S(=O)(=O)c1cn(C)cn1)[C@H](C)CN(C(=O)Nc1ccc(C(F)(F)F)cc1)[C@@H](C)CO,7.66 µM
5,C[C@@H]1CCCCO[C@@H](CN(C)Cc2ccccc2)[C@H](C)CN([C@@H](C)CO)C(=O)c2cc(NC(=O)Nc3ccc(F)cc3)ccc2O1,> 16 µM (inactive)
6,CNC[C@@H]1OCCCC[C@H](C)Oc2ccc(NC(=O)Nc3ccc(C(F)(F)F)cc3)cc2C(=O)N([C@H](C)CO)C[C@@H]1C,19.2 µM
7,CNC(=O)C[C@H]1CC[C@H]2[C@@H](COC[C@@H](O)CN2C(=O)Nc2ccc(Cl)c(Cl)c2)O1,2.75 µM
8,CO[C@H]1CN(C)C(=O)c2ccc(NC(=O)c3nc4ccccc4s3)cc2OC[C@@H](C)N(Cc2ccncc2)C[C@@H]1C,30.8 µM
9,Cc1ccc(S(=O)(=O)N[C@H]2CC[C@@H](CCNC(=O)Nc3ccc(Cl)cc3)O[C@H]2CO)cc1,18.2 µM
10,C[C@@H]1CCCCO[C@@H](CN(C)CC2CCCCC2)[C@H](C)CN([C@@H](C)CO)C(=O)c2cc(NC(=O)Nc3ccc(C(F)(F)F)cc3)ccc2O1,12.6 µM
11,CO[C@H]1CN(C)C(=O)c2cc(NC(=O)Nc3cc(Cl)cc(Cl)c3)ccc2OC[C@H](C)NC[C@@H]1C,9.09 µM
12,CC(C)CC#Cc1ccc2c(c1)O[C@H](CN(C)Cc1ccc(C(=O)O)cc1)[C@@H](C)CN([C@H](C)CO)S2(=O)=O,17.9 µM
13,C[C@H]1CN([C@@H](C)CO)S(=O)(=O)c2ccc(C#Cc3cccc(F)c3)cc2O[C@H]1CN(C)C,24.8 µM
14,O=C(C[C@H]1CC[C@@H]2[C@H](COC[C@H](O)CN2C(=O)Nc2ccc(Cl)c(Cl)c2)O1)NCc1ccccc1,< 1.95 µM
15,C[C@@H]1CCCCO[C@@H](CN(C)CC2CCCCC2)[C@@H](C)CN([C@@H](C)CO)C(=O)c2cc(NC(=O)Nc3ccc(C(F)(F)F)cc3)ccc2O1,10.7 µM
16,O=C(C[C@@H]1CC[C@H]2[C@@H](COC[C@H](O)CN2C(=O)Nc2ccc(Cl)c(Cl)c2)O1)NCc1ccccc1,3.53 µM
17,C[C@@H]1CN([C@@H](C)CO)C(=O)Cc2cc(N(C)C)ccc2O[C@H]1CN(C)Cc1ccc(C(F)(F)F)cc1,29.1 µM
18,C[C@H](CO)N1C[C@H](C)[C@H](CN(C)C(=O)Nc2cccc3ccccc23)Oc2c(NC(=O)Nc3ccc(C(F)(F)F)cc3)cccc2C1=O,31.7 µM
19,CNC[C@H]1OCCCC[C@@H](C)Oc2ccc(NC(=O)Nc3ccc(C(F)(F)F)cc3)cc2C(=O)N([C@H](C)CO)C[C@H]1C,15.4 µM
20,O=C(NCC[C@H]1CC[C@@H](NC(=O)C2CC2)[C@@H](CO)O1)Nc1ccc(C(F)(F)F)cc1,1.69 µM
21,CO[C@H](CN(C)S(=O)(=O)c1cn(C)cn1)[C@H](C)CN(C(=O)Nc1ccc(C(F)(F)F)cc1)[C@H](C)CO,6.25 µM
22,CO[C@@H]1CN(C)C(=O)c2ccc(NC(=O)c3ccccc3)cc2OC[C@H](C)N(C(=O)C2CC2)C[C@H]1C,> 60 µM (inactive)
23,O=C(C[C@@H]1CC[C@H]2[C@@H](COC[C@@H](O)CN2S(=O)(=O)c2ccc(Cl)cc2)O1)NCC1CCCCC1,15.8 µM
24,O=C(C[C@H]1CC[C@H]2[C@@H](COC[C@@H](O)CN2C(=O)Nc2ccc(C(F)(F)F)cc2)O1)NCCc1ccncc1,3.88 µM

row,Structure (SMILES),AC50
1,O=C(C[C@H]1CC[C@H]2[C@@H](COC[C@H](O)CN2C(=O)Nc2ccc(Cl)c(Cl)c2)O1)NCc1ccncc1,0.575 µM
2,O=C(C[C@@H]1CC[C@H]2[C@@H](COC[C@@H](O)CN2C(=O)Nc2ccc(Cl)c(Cl)c2)O1)NCc1ccc(Cl)c(Cl)c1,< 0.5 µM
3,COc1ccccc1CNC(=O)C[C@@H]1CC[C@@H]2[C@H](COC[C@@H](O)CN2C(=O)Nc2ccc(C(F)(F)F)cc2)O1,1.6 µM
4,COC(=O)[C@H]1[C@H](CO)[C@H]2Cn3c(ccc(-c4ccccc4)c3=O)[C@H]2N1CC1CCCCC1,16.7 µM
5,CO[C@H](CN(C)C(=O)C1CC1)[C@H](C)CN(C(=O)Nc1ccc(C(F)(F)F)cc1)[C@@H](C)CO,14.7 µM
6,C=C1CC(c2ccc(-c3ccccc3)cc2)OC1=O (stereo unspecified),13.7 µM
7,C[C@@H]1CN([C@H](C)CO)C(=O)c2cccc(NC(=O)Nc3ccc(C(F)(F)F)cc3)c2O[C@@H]1CN(C)Cc1ccc(Oc2ccccc2)cc1,18.8 µM
8,C[C@H](CO)N1C[C@H](C)[C@@H](CN(C)Cc2ccccc2)Oc2ccc(NC(=O)Nc3ccc(C(F)(F)F)cc3)cc2CC1=O,31.4 µM
9,O=C(C[C@@H]1CC[C@H]2[C@@H](COC[C@H](O)CN2C(=O)Nc2ccc(Cl)c(Cl)c2)O1)NCc1ccc(Cl)c(Cl)c1,1.1 µM
10,CNC[C@@H]1OCCCC[C@H](C)Oc2ccc(NC(=O)Nc3ccc(C(F)(F)F)cc3)cc2C(=O)N([C@H](C)CO)C[C@H]1C,19.4 µM
11,O=C(C[C@H]1CC[C@@H]2[C@H](COC[C@H](O)CN2C(=O)Nc2ccc(C(F)(F)F)cc2)O1)NCC1CCCCC1,1.21 µM
12,CO[C@H]1CN(C)C(=O)c2cc(NC(C)=O)ccc2OC[C@@H](C)N(Cc2nccs2)C[C@@H]1C,> 60 µM (inactive)
13,C[C@@H]1CN([C@@H](C)CO)C(=O)c2c(c3ccccc3n2C)-c2ccccc2CO[C@@H]1CN(C)Cc1ccncc1,> 60 µM (inactive)
14,O=C(NCC[C@@H]1CC[C@@H](NC(=O)c2cccnc2)[C@H](CO)O1)Nc1ccc(C(F)(F)F)cc1,3.16 µM
15,O=C(C[C@@H]1CC[C@@H]2[C@H](COC[C@@H](O)CN2C(=O)Nc2ccc(Cl)c(Cl)c2)O1)NC1CCC1,2.82 µM
16,C[C@@H]1CN([C@@H](C)CO)C(=O)c2cccc(NC(=O)Nc3ccc(F)cc3)c2O[C@@H]1CN(C)Cc1ccc(-c2ccccc2)cc1,< 0.5 µM
17,CCC(=O)N[C@H]1CC[C@@H](CCNC(=O)Nc2ccc(C(F)(F)F)cc2)O[C@@H]1CO,2.73 µM
18,CO[C@H](CN(C)Cc1cc(F)ccc1F)[C@H](C)CN(C(=O)Nc1ccc(C(F)(F)F)cc1)[C@@H](C)CO,7.48 µM
19,C[C@@H]1CCCCO[C@@H](CN(C)CC2CC2)[C@H](C)CN([C@H](C)CO)C(=O)c2cc(NC(=O)Nc3ccc(C(F)(F)F)cc3)ccc2O1,15.9 µM
20,C[C@@H]1CN([C@@H](C)CO)C(=O)c2cccc(NC(=O)Nc3ccc4c(c3)OCO4)c2O[C@@H]1CN(C)Cc1ccc(-c2ccccc2)cc1,0.665 µM
21,COc1ccccc1CNC(=O)C[C@@H]1CC[C@@H]2[C@H](COC[C@H](O)CN2C(=O)Nc2ccc(C(F)(F)F)cc2)O1,0.614 µM
22,N#C[C@H]1[C@H](c2ccc(C#Cc3ccc(F)cc3)cc2)[C@@H](CO)N1C(=O)C1CCCC1,> 70 µM (inactive)
23,O=C(C[C@H]1CC[C@@H]2[C@H](COC[C@H](O)CN2C(=O)Nc2ccc(Cl)c(Cl)c2)O1)NCc1ccc(Cl)c(Cl)c1,< 0.5 µM

# Reference: PubChem BioAssay AID1224921 (Broad Institute, 2016)
